From paper PMC12848680, “Microbial Cross-Talk: Unlocking the Cytochalasin Diversity from a Termite-Associated Xylaria” (JACS Au, 2025)
In brackets after ≈: the same amount, converted by molar mass. Read-outs that look alike come from different tables or passages of the source.

Tests used:
[1] = tested on: CHO-K1 (chinese hamster ovary cells); assay: Cytotoxicity assay (MTT, 5 d) on CHO-K1; assay type: cell-based; details: Cricetulus griseus, CHO-K1, 120 h
Protocol: (§1) Cytotoxicity assay: A549 (human lung carcinoma cell line; ACC 107) and CHO-K1 (chinese hamster ovary cells; ACC 110) were obtained from the German Collection of Microorganisms and Cell Cultures (DSMZ) and cultured under the conditions recommended by the depositor. Cells were propagated in Dulbeccos’s Modified Eagle’s Medium (DMEM) and Ham’s F12 medium, respectively, supplemented with 10% fetal bovine serum (FBS), and seeded at 6×10^3 cells per well of 96-well plates in 120 μL of complete medium. After 2 h of equilibration (37 °C, 5% CO2), the cells were treated with a serial dilution of cytochalasins in 60 µL growth medium. Cytochalasins, doxorubicin as reference, as well as the solvent control were tested as duplicates in two independent experiments. After 5 d of incubation (37 °C, 5% CO2), a total of 20 μL of 5 mg/ml MTT (thiazolyl blue tetrazolium bromide) in phosphate -buffered saline (PBS) were added to each well […]
(§2) and the cells were further incubated for 2 h at 37 °C before the supernatant was discarded.
(§3) Subsequently, the cells were washed with 100 μL of PBS and treated with 100 μl of 2-propanol/10 N HCl (250:1) to dissolve formazan granules. Cell viability was measured as percentage relative to the respective solvent control by measuring the absorbance at 570 nm using a microplate reader (Tecan Infinite M200Pro). GraphPad Prism (version 10.0.3, GraphPad, Boston, MA, USA) was used for sigmoidal curve fitting to determine the IC50 values.

[2] = in vitro; assay type: in vitro ADME, mouse; details: 1 μM compound, pooled CD-1 mouse plasma, read-out: Mouse plasma t1/2
Protocol: Plasma stability assays: To determine stability in plasma, the compound (1 μM) was incubated with pooled CD-1 mouse plasma (Neo Biotech, Nanterre, France). Samples were taken by mixing aliquots with 4 volumes of cold internal standard solution (12.5 nM diphenhydramine in 10% methanol/acetonitrile). The plasma stability of procain, propantheline and diltiazem were determined in parallel to confirm the enzymatic activity. Samples were stored on ice until the end of the incubation and precipitated protein was removed by centrifugation (15 min, 4 °C, 4,000 g, two centrifugation steps). Concentration of the remaining test compound at the different time points was analyzed by HPLC-MS/MS (Vanquish Flex coupled to a TSQ Altis Plus, Thermo Fisher, Dreieich, Germany). […]

[3] = tested on: A549 (human lung carcinoma cell line); assay: Cytotoxicity assay (MTT, 5 d) on A549; assay type: cell-based; details: for IC50: Homo sapiens, A549, 120 h, MTT, 5 d incubation; for Cytotoxic activity against A549 (in words): positive control doxorubicin
Protocol: as §1, §2, §3

[4] = in vitro; assay type: in vitro ADME, mouse; details: for microsomal CLint: C57BL/6, mouse, microsomes; for half-life: mouse, read-out: Mouse liver microsome t1/2
Protocol: Assays in liver microsomes: For metabolic stability, the compound (1 μM) was incubated with 0.5 mg/mL pooled mouse (C57BL/6) microsomes (Xenotech, Kansas City, USA), 2 mM NADPH, 10 mM MgCl2 at 37 °C for 120 min on a microplate shaker. The metabolic stability of testosterone, verapamil and ketoconazole were determined in parallel to confirm the enzymatic activity of mouse/rat liver microsomes. The incubation was stopped after defined time points by precipitation of aliquots of the incubation mixture with 2 volumes of cold internal standard solution (15 nM diphenhydramine in 10% methanol/acetonitrile). Samples were stored on ice until the end of the incubation and precipitated protein was removed by centrifugation (15 min, 4 °C, and 4,000 g). Concentration of the remaining test compound at the different time points was analyzed by HPLC-MS/MS (Vanquish Flex coupled to a TSQ Altis Plus, Thermo Fisher, Dreieich, Germany) and used to determine half-life (t1/2). […]

[5] = tested on: Staphylococcus aureus Newman; assay: Antibacterial activity against S. aureus Newman; assay type: cell-based; details: Table S22
[6] = tested on: E. coli ΔacrB (JW0451-2); assay: Antibacterial activity against E. coli ΔacrB; assay type: cell-based; details: Escherichia coli, read-out: E. coli ΔacrB (JW0451-2) MIC
[7] = Table S22, intrinsic clearance calculated from microsomal metabolism data
[8] = Table S22, 1 μM compound, 0.5 mg/mL pooled C57BL/6 microsomes
[9] = Table 1, intrinsic clearance from microsomal metabolism data
[10] = Table 1, 1 μM compound, 0.5 mg/mL pooled C57BL/6 microsomes, 120 min

SMILES	IC50 ([1]; Table S22, 5 d incubation) [mg/L]	half-life at 1 μM ([2]; Table S22) [min]	IC50 ([3]; Table S22) [mg/L]	microsomal CLint [4, 7] [µL/min/mg]	half-life [4, 8] [min]	MIC [5] [mg/L]	MIC [6] [mg/L]	IC50 ([1]; Table 1, 5 d incubation) [mg/L]	half-life at 1 μM ([2]; Table 1) [min]	IC50 ([3]; Table 1) [mg/L]	Cytotoxic activity against A549 (in words) [3]	microsomal CLint [4, 9] [µL/min/mg]	half-life [4, 10] [min]	Mouse liver microsome t1/2 [4, 8] [min]
CC(=O)O[C@@H]1/C=C/[C@@](C)(O)C(=O)[C@@H](C)C/C=C/[C@H]2[C@@H]3O[C@]3(C)[C@@H](C)[C@H]3[C@H](Cc4cccc(Cl)c4)NC(=O)[C@@]312 [Compound 13, m-chloro-cytochalasin Q]	0.41 ± 0.06 (≈ 0.756 µM)	> 240	0.14 ± 0.02 (≈ 0.258 µM)	95 ± 15	15 ± 3	> 64	> 64							
CC(=O)OC1C2OC2C(C)(O)C(=O)C(C)CC=CC2C(O)C(C)=C(C)C3C(Cc4cccc(Cl)c4)NC(=O)C213 (stereo not drawn) [Compound 11, m-chloro-19,20-epoxycytochalasin C]					26.4 ± 1.2	> 64	> 64	0.67 ± 0.53 (≈ 1.2 µM)	> 240	0.04 (≈ 0.0717 µM)	lower nanomolar activities	52.7 ± 2.5		
CC(=O)O[C@@H]1/C=C/[C@@](C)(O)C(=O)[C@@H](C)C/C=C/[C@H]2[C@H](O)C(C)=C(C)[C@H]3[C@H](Cc4ccccc4)NC(=O)[C@@]123 [Compound 2, cytochalasin C]	1.48 ± 1.38 (≈ 2.92 µM)	> 240	3.34 ± 0.92 (≈ 6.58 µM)	88 ± 7	15.8 ± 1.2	> 64	> 64							
CC(=O)OC1C2OC2C(C)(O)C(=O)C(C)CC=CC2C3OC3(C)C(C)C3C(Cc4ccccc4)N(C(C)=O)C(=O)C213 (stereo not drawn) [Compound 24, N-acetyl-19,20-epoxycytochalasin Q]	3.06 ± 0.5 (≈ 5.41 µM)	> 240	0.72 ± 0.12 (≈ 1.27 µM)	558 ± 58	2.5 ± 0.3	> 64	> 64							
CC1CC=CC2C3OC3(C)C(C)C3C(Cc4ccccc4)NC(=O)C23C(O)C2OC2C(C)(O)C1=O (stereo not drawn) [Compound 7, deacetyl-19,20-epoxycytochalasin Q]	3.78 ± 0.3 (≈ 7.85 µM)	> 240	2.56 ± 0.94 (≈ 5.32 µM)	14 ± 3	102 ± 24	> 64	> 64							
C#CCCC1(CCC(=O)OC2C(C)=C(C)C3C(Cc4ccccc4)NC(=O)C34C2C=CCC(C)C(=O)C(C)(O)C2OC2C4OC(C)=O)N=N1 (stereo not drawn) [Compound 25, 7-diazirin-19,20-epoxycytochalasin C]						> 64	> 64	14.2 ± 1.93 (≈ 21.2 µM)	> 240	24.9 (≈ 37.1 µM)	pronounced reduced activity	907 ± 388	1.7 ± 0.6	
CC(=O)OC1C2OC2C(C)(O)C(=O)C(C)CC=CC2C(O)C(C)=C(C)C3C(CC(=O)O)NC(=O)C213 (stereo not drawn) [Compound 22, xylachalasin A]				< 11.6		> 64	> 64	> 37	> 240	> 37			> 120	>120
CC1=C(C)C2C(Cc3ccccc3)NC(=O)C23C(O)C2OC2C(C)(O)C(=O)C(C)CC=CC3C1O (stereo not drawn) [Compound 4, deacetyl-19,20-epoxycytochalasin C]	4.63 ± 4.23 (≈ 9.61 µM)	> 240	1.07 (≈ 2.22 µM)	26.2 ± 0.1	53.1 ± 0.2	> 64	> 64							
CC(=O)OC1C2OC2C(C)(O)C(=O)C(C)CC=CC2C(O)C(C)=C(C)C3C(Cc4ccccc4)NC(=O)C213 (stereo not drawn) [Compound 3, 19,20-epoxycytochalasin C]						> 64	> 64	0.51 ± 0.27 (≈ 0.974 µM)	> 240	0.34 ± 0.13 (≈ 0.649 µM)	comparable to the positive control	31.6 ± 1.4	43.9 ± 2	
CC1=C(C)C2C(Cc3cccc(Cl)c3)NC(=O)C23C(O)C2OC2C(C)(O)C(=O)C(C)CC=CC3C1O (stereo not drawn) [Compound 12, m-chloro-deacetyl-19,20-epoxycytochalasin C]	2.02 ± 1.2 (≈ 3.91 µM)	> 240	> 37	39 ± 12	36 ± 10	> 64	> 64							
C#CCCC1(CCC(=O)OC2C(=C)C(C)C3C(Cc4ccccc4)NC(=O)C34C2C=CCC(C)C(=O)C(C)(O)C2OC2C4OC(C)=O)N=N1 (stereo not drawn) [Compound 26, 7-diazirin-19,20-epoxycytochalasin D]	7.02 ± 1.16 (≈ 10.4 µM)	> 240	10.3 (≈ 15.3 µM)	1020 ± 120	1.4 ± 0.1	> 64	> 64							
CC(=O)OC1C(C)=C(C)C2C(Cc3ccccc3)NC(=O)C23C1C=CCC(C)C(=O)C(C)(O)C1OC1C3OC(C)=O (stereo not drawn) [Compound 23, 7-acetyl-19,20-epoxycytochalasin C]						> 64	> 64	15.7 ± 3.05 (≈ 27.7 µM)	> 240	> 37	pronounced reduced activity	231 ± 36	6.1 ± 1	
CC(=O)OC1C2OC2C(C)(O)C(=O)C(C)CC=CC2C3OC3(C)C(C)C3C(Cc4ccccc4)NC(=O)C213 (stereo not drawn) [Compound 6, 19,20-epoxycytochalasin Q]	0.72 ± 0.3 (≈ 1.38 µM)	> 240	0.14 ± 0.02 (≈ 0.267 µM)	97 ± 24	15 ± 4	> 64	> 64							
